Results on 14 compounds are retold here after patent US11420956B2, “Ureas having Androgen Receptor degradation activity and uses thereof” (ACCUTAR BIOTECHNOLOGY INC., priority 2019, dated 2022).

Broadly, the DC50 is the concentration giving 50% degradation. Low values mean degradation at low concentration, high ones degradation only at high concentration.

The target of the assay is T1, androgen receptor (AR) (Homo sapiens, UniProt P10275, T878A).
T1 construct: endogenous in cells; host or cells: LNCAP
T1 sequence (P10275 1-920 T878A): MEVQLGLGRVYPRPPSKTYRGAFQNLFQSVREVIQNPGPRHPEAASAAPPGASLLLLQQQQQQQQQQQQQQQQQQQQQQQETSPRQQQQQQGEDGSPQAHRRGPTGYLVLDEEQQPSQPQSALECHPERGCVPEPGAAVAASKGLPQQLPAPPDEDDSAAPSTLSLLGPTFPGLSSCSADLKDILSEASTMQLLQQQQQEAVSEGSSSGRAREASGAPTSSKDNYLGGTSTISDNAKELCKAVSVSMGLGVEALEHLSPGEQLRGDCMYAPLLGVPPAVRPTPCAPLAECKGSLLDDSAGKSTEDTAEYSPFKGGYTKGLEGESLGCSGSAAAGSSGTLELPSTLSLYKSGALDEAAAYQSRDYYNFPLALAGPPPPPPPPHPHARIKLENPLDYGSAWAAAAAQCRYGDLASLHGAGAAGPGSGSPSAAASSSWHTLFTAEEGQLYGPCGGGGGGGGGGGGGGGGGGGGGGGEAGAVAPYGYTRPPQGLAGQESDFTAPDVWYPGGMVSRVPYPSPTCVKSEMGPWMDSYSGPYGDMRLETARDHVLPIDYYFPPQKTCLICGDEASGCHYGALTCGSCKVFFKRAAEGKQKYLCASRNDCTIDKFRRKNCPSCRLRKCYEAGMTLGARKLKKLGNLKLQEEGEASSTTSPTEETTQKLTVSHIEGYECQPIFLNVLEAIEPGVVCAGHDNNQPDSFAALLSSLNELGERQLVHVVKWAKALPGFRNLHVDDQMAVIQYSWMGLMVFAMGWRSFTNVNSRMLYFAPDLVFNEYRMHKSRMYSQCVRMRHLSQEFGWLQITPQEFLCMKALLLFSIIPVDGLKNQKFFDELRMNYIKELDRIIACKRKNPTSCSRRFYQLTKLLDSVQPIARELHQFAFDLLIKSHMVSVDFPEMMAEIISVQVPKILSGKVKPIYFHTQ
As to the kind of experiment: AR degradation in LNCAP cells (Western blot). It counts as cell-based. Particulars: 24 hours after administration. The protocol:
LNCAP, VCAP and 22Rv1 cells were plated in 24-well plates at 1.5×10E5 cells/well in the RPMI growth medium containing 10% FBS and 1% Penicillin Streptomycin, and then incubated at 37° C. overnight. The following day, the test compound was administered to the cells by using 1000× compound stock solution prepared in DMSO at various concentrations. After administration of the compound, the cells were then incubated at 37° C. for 24 hours. Upon completion, the cells were washed with PBS and protein was collected in Laemmli sample buffer (1×; VWR International). Proteins in cell lysate were separated by SDS-PAGE and transferred to Odyssey nitrocellulose membranes (Licor) with iblot® dry blotting transfer system (ThermoFisher). Nonspecific binding was blocked by incubating membranes with Intercept Blocking Buffer (Licor) for 1 hour at room temperature with gentle shaking. The membranes were then incubated overnight at 4° C. with Primary antibodies rabbit anti-AR (1:1,000, Cell Signaling, 5153) and mouse anti-GAPDH (1:5,000, Santa Cruz Biotechnology, sc-47724) diluted in Intercept Blocking Buffer containing 0.1% Tween 20. After washing 3 times with TBS-T, the membranes were incubated with IRDye® […] goat anti-mouse IgG (1:20,000, Licor) or IRDye® […] goat anti-rabbit IgG (1:20,000, Licor) for 1 hour. After TBS-T washes, membranes were rinsed in TBS and scanned on Odyssey® CLx Imaging System (Licor). The bands were quantified using Image Studio™ Software (Licor).
Tables 5 and 6 summarize the androgen receptor (AR) degradative activity of exemplary compounds in LNCAP, VCAP and 22Rv1 cell lines 24 hours after administration. DC50: compound concentration needed for 50% target protein degradation.
For orientation: A western blot detects proteins with antibodies after separation by electrophoresis.
For the compound `C[C@@H]1CN(c2ccc(C#N)c(Cl)c2)[C@@H](C)CN1C(=O)Nc1ccc(OCCCCN(C)C2CC(Oc3ccc4c(c3)C(=O)N(C3CCC(=O)NC3=O)C4=O)C2)nc1` (stereo partly drawn) [Compound 1-8, (2R,5S)-4-(3-chloro-4-cyanophenyl)-N-(6-(4-(((1r,3r)-3-((2-(2,6-dioxopiperidin-3-yl)-1,3-dioxoisoindolin-5-yl)oxy)cyclobutyl)(methyl)amino)butoxy)pyridin-3-yl)-2,5-dimethylpiperazine-1-carboxamide], the DC50 was no more than 10 nM.
With `C[C@@H]1CN(c2ccc(C#N)c(Cl)c2)[C@@H](C)CN1C(=O)Nc1ccc(N2CCC(CN(C)C3CC(Oc4ccc5c(c4)C(=O)N(C4CCC(=O)NC4=O)C5=O)C3)CC2)nc1` (stereo partly drawn) [Compound 1-9, (2R,5S)-4-(3-chloro-4-cyanophenyl)-N-(6-(4-((((1r,3r)-3-((2-(2,6-dioxopiperidin-3-yl)-1,3-dioxoisoindolin-5-yl)oxy)cyclobutyl)(methyl)amino)methyl)piperidin-1-yl)pyridin-3-yl)-2,5-dimethylpiperazine-1-carboxamide] the figure was no more than 10 nM; with `CCN(CC1CCN(c2ccc(NC(=O)N3C[C@H](C)N(c4ccc(C#N)c(Cl)c4)C[C@H]3C)cn2)CC1)C1CC(Oc2ccc3c(c2)C(=O)N(C2CCC(=O)NC2=O)C3=O)C1` (stereo partly drawn) [Compound 1-10, (2R,5S)-4-(3-chloro-4-cyanophenyl)-N-(6-(4-((((1r,3r)-3-((2-(2,6-dioxopiperidin-3-yl)-1,3-dioxoisoindolin-5-yl)oxy)cyclobutyl)(ethyl)amino)methyl)piperidin-1-yl)pyridin-3-yl)-2,5-dimethylpiperazine-1-carboxamide], 10 to 100 nM.
Regarding `CC(C)N(CC1CCN(c2ccc(NC(=O)N3C[C@H](C)N(c4ccc(C#N)c(Cl)c4)C[C@H]3C)cn2)CC1)C1CC(Oc2ccc3c(c2)C(=O)N(C2CCC(=O)NC2=O)C3=O)C1` (stereo partly drawn) [Compound 1-11, (2R,5S)-4-(3-chloro-4-cyanophenyl)-N-(6-(4-((((1r,3r)-3-((2-(2,6-dioxopiperidin-3-yl)-1,3-dioxoisoindolin-5-yl)oxy)cyclobutyl)(isopropyl)amino)methyl)piperidin-1-yl)pyridin-3-yl)-2,5-dimethylpiperazine-1-carboxamide], the DC50 was no more than 10 nM.
With `CC(C)N(CC1CCN(c2ccc(NC(=O)N3C[C@H](C)N(c4ccc(C#N)c(Cl)c4)C[C@H]3C)cn2)CC1)C1CC(Oc2ccc3c(c2)C(=O)N(C2CCC(=O)NC2=O)C3=O)C1` (stereo partly drawn) [Compound 1-12, (2R,5S)-4-(3-chloro-4-cyanophenyl)-N-(6-(4-((((1s,3s)-3-((2-(2,6-dioxopiperidin-3-yl)-1,3-dioxoisoindolin-5-yl)oxy)cyclobutyl)(isopropyl)amino)methyl)piperidin-1-yl)pyridin-3-yl)-2,5-dimethylpiperazine-1-carboxamide] the figure was 10 to 100 nM.
For the compound `C[C@@H]1CN(c2ccc(C#N)c(Cl)c2)[C@@H](C)CN1C(=O)Nc1ccc(N2CCC(CN3CCN(c4ccc5c(c4)C(=O)N(C4CCC(=O)NC4=O)C5=O)CC3)CC2)nc1` (stereo partly drawn) [Compound 1-13, (2R,5S)-4-(3-chloro-4-cyanophenyl)-N-(6-(4-((4-(2-(2,6-dioxopiperidin-3-yl)-1,3-dioxoisoindolin-5-yl)piperazin-1-yl)methyl)piperidin-1-yl)pyridin-3-yl)-2,5-dimethylpiperazine-1-carboxamide], the 50% degradation concentration (DC50) is no more than 10 nM.
`C[C@@H]1CN(c2ccc(C#N)c(Cl)c2)[C@@H](C)CN1C(=O)Nc1ccc(N2CCC(CCN3CCN(c4ccc5c(c4)C(=O)N(C4CCC(=O)NC4=O)C5=O)CC3)CC2)nc1` (stereo partly drawn) [Compound 1-19, (2R,5S)-4-(3-chloro-4-cyanophenyl)-N-(6-(4-(2-(4-(2-(2,6-dioxopiperidin-3-yl)-1,3-dioxoisoindolin-5-yl)piperazin-1-yl)ethyl)piperidin-1-yl)pyridin-3-yl)-2,5-dimethylpiperazine-1-carboxamide] came in with a DC50 of no more than 10 nM.
For `C[C@@H]1CN(c2ccc(C#N)c(Cl)c2)[C@@H](C)CN1C(=O)Nc1ccc(N2CCC(CN3CCN(c4ccc5c(c4)C(=O)N(C4CCC(=O)NC4=O)C5=O)CC3)CC2)cc1F` (stereo partly drawn) [Compound 1-23, (2R,5S)-4-(3-chloro-4-cyanophenyl)-N-(4-(4-((4-(2-(2,6-dioxopiperidin-3-yl)-1,3-dioxoisoindolin-5-yl)piperazin-1-yl)methyl)piperidin-1-yl)-2-fluorophenyl)-2,5-dimethylpiperazine-1-carboxamide] the value was no more than 10 nM; for `COc1cc(N2C[C@@H](C)N(C(=O)Nc3ccc(N4CCC(CN5CCN(c6ccc7c(c6)C(=O)N(C6CCC(=O)NC6=O)C7=O)CC5)CC4)cc3F)C[C@@H]2C)ccc1C#N` (stereo partly drawn) [Compound 1-25, (2R,5S)-4-(4-cyano-3-methoxyphenyl)-N-(4-(4-((4-(2-(2,6-dioxopiperidin-3-yl)-1,3-dioxoisoindolin-5-yl)piperazin-1-yl)methyl)piperidin-1-yl)-2-fluorophenyl)-2,5-dimethylpiperazine-1-carboxamide], no more than 10 nM.
With `COc1cc(N2C[C@@H](C)N(C(=O)Nc3ccc(N4CCC(CN5CCN(c6ccc7c(c6)CN([C@H]6CCC(=O)NC6=O)C7=O)CC5)CC4)nc3)C[C@@H]2C)ccc1C#N` [Compound 1-33, (2R,5S)-4-(4-cyano-3-methoxyphenyl)-N-(6-(4-((4-(2-((S)-2,6-dioxopiperidin-3-yl)-1-oxoisoindolin-5-yl)piperazin-1-yl)methyl)piperidin-1-yl)pyridin-3-yl)-2,5-dimethylpiperazine-1-carboxamide] the figure was no more than 10 nM; with `COc1cc(N2C[C@@H](C)N(C(=O)Nc3ccc(N4CCC(CN5CCN(c6cc7c(cc6F)C(=O)N(C6CCC(=O)NC6=O)C7=O)CC5)CC4)nc3)C[C@@H]2C)ccc1C#N` (stereo partly drawn) [Compound 1-39, (2R,5S)-4-(4-cyano-3-methoxyphenyl)-N-(6-(4-((4-(2-(2,6-dioxopiperidin-3-yl)-6-fluoro-1,3-dioxoisoindolin-5-yl)piperazin-1-yl)methyl)piperidin-1-yl)pyridin-3-yl)-2,5-dimethylpiperazine-1-carboxamide], no more than 10 nM; with `C[C@@H]1CN(c2ccc(C#N)c(Cl)c2)[C@@H](C)CN1C(=O)Nc1cnc(N2CCC(CN3CCN(c4cc5c(cc4F)C(=O)N(C4CCC(=O)NC4=O)C5=O)CC3)CC2)nc1` (stereo partly drawn) [Compound 1-41, (2R,5S)-4-(3-chloro-4-cyanophenyl)-N-(2-(4-((4-(2-(2,6-dioxopiperidin-3-yl)-6-fluoro-1,3-dioxoisoindolin-5-yl)piperazin-1-yl)methyl)piperidin-1-yl)pyrimidin-5-yl)-2,5-dimethylpiperazine-1-carboxamide], no more than 10 nM.
In turn, `C[C@@H]1CN(c2ccc(C#N)c(Cl)c2)[C@@H](C)CN1C(=O)Nc1ccc(N2CCC(CN3CCN(c4ccc5c(c4)CN([C@H]4CCC(=O)NC4=O)C5=O)CC3)CC2)nc1` [Compound 1-44, (2R,5S)-4-(3-chloro-4-cyanophenyl)-N-(6-(4-((4-(2-((S)-2,6-dioxopiperidin-3-yl)-1-oxoisoindolin-5-yl)piperazin-1-yl)methyl)piperidin-1-yl)pyridin-3-yl)-2,5-dimethylpiperazine-1-carboxamide] registered a DC50 of no more than 10 nM.
For `C[C@@H]1CN(c2ccc(C#N)c(C(F)(F)F)c2)[C@@H](C)CN1C(=O)Nc1ccc(N2CCC(CN3CCN(c4ccc5c(c4)C(=O)N(C4CCC(=O)NC4=O)C5=O)CC3)CC2)c(F)c1` (stereo partly drawn) [Compound 1-45, (2R,5S)-4-(4-cyano-3-(trifluoromethyl)phenyl)-N-(4-(4-((4-(2-(2,6-dioxopiperidin-3-yl)-1,3-dioxoisoindolin-5-yl)piperazin-1-yl)methyl)piperidin-1-yl)-3-fluorophenyl)-2,5-dimethylpiperazine-1-carboxamide] the value was no more than 10 nM.
